{"source": "patent US20040009210A1", "about": "“Wound management products incorporating cationic compounds” (Kimberly-Clark Worldwide, Inc., priority 2002, published 2004)", "experiment": "Effective charge density of the cationic compound (measured)", "type": "physicochemical"}
{"smiles": "CCCCCCCC/C=C\\CCCCCCCC(=O)NCC[N+]1=C(CCCCCCC/C=C\\CCCCCCCC)N(C)CC1.COS(=O)(=O)[O-]", "note": "[cationic softener, 1-methyl-2-Noroleyl-3-oleyl amidoethyl imidazolinium methosulfate]", "values": [{"measurement": "effective charge density (measured)", "result": "about 1300 microequivalents/gram"}]}
